Where “and” joins values, the source holds several entries; their conditions need not be identical. Equal values may be shown once. After the bases stand the sugars from the 5' end (letter, count) and the backbone: PS all phosphorothioate, else s phosphorothioate and o phosphodiester by linkage. Methylation of C is not given here. e = 2'-O-(2-methoxyethyl) (MOE); k = constrained ethyl (cEt); d = 2'-deoxy (DNA); m = 2'-O-methyl

This data set has as its target HSD17B13. The settings on record: ASO, HepaRG.

Under “1 µM”, ATATATCCTTCCTTGG (sugars k3 d10 k3, PS) had a target mRNA inhibition of 20%.
Still for that read-out and setting: to TAGTGCCAAACCAATG (sugars k3 d10 k3, PS) belongs 46% and 61%.
On the same count and under the same terms, with TAAGAGATGAGTAGGC (sugars k3 d10 k3, PS) the figure was 46%; with “CTTCATAGTGGACTTC (sugars k3 d9 k3 e1, PS)”, 57%.
On the same count and under the same terms, to AGCTCCAGTAATGAGA (sugars k3 d10 k3, PS) belongs 26%; to GATACCTGAAAAGCCC (sugars k3 d10 k3, PS), 49%; to GTTAAGCAGATGGCTT (sugars k3 d10 k3, PS), 41%.
With CCTTCTGGTTCAGTCC (sugars k3 d10 k3, PS), the target mRNA inhibition stood at 9% (0.02 µM); 20% (0.078 µM); 39% (0.313 µM); 72% (1 µM); 68% (1.25 µM); 89% (5 µM).
As for “CCTCTAAGTTAGCCCC (sugars kkdddddddddkekek, PS)”, the target mRNA inhibition (1 µM) came to 20%.
For TGTAGTGGGAGTCGGA (sugars k3 d10 k3, PS), for the setting “1 µM”, the target mRNA inhibition was determined as 62%.
In the case of ACCAAGAGGGTTTTTA (sugars k3 d10 k3, PS), the target mRNA inhibition (1 µM) amounted to 7%.
In the case of “CTTGATCTCTTAGCTG (sugars kkdddddddddkekek, PS)”, the target mRNA inhibition (1 µM) worked out at 49%.
The sequence TCTTATAAGACTATAA (sugars k3 d10 k3, PS) gave a target mRNA inhibition (1 µM) of 17%.
Where the note is “1 µM”, TCTTATCTTGGGCACC (sugars k3 d10 k3, PS) had a target mRNA inhibition of 44%.
Consider GGCTATAGTAATTGCT (sugars k3 d10 k3, PS), for which, for the setting “1 µM”, the target mRNA inhibition was 13%.
For the sequence TCTAGGAGATATAACA (sugars k3 d10 k3, PS), the target mRNA inhibition (1 µM) stood at 48%.
With CTCCACACCGCGCTTA (sugars k3 d10 k3, PS), the target mRNA inhibition (1 µM) was determined as 7%.
Still for that read-out and setting: with TAAATCCAAATCACTC (sugars k3 d10 k3, PS) the figure was 39%; with AAGACATTCTAGCCTG (sugars k3 d10 k3, PS), 63%.
The same measure, in the same setting: with GCCTTGAATAGCAAGC (sugars k3 d10 k3, PS) the figure was 32%; with CAATACAGGCCATAAT (sugars k3 d10 k3, PS), 0%; with “TTATAACTACAAGAGG (sugars kkdddddddddkekek, PS)”, 55%.
On the same count and under the same terms, to GATAAAATAGGGTGCA (sugars k3 d10 k3, PS) belongs 52%; to GATTAAGCAGAATTGT (sugars k3 d10 k3, PS), 37%.
Consider “TAGTCTTCAGCAAAGT (sugars k3 d9 k3 e1, PS)”, for which the target mRNA inhibition (1 µM) turned out to be 36%.
Turning to “ACGGTGATCAAATGTA (sugars k3 d9 k3 e1, PS)”, the target mRNA inhibition (1 µM) turned out to be 41%.
For GTTAGCTAAGGGAGAG (sugars k3 d10 k3, PS), the target mRNA inhibition (1 µM) stood at 18%.
On the same count and under the same terms, with “GTTATTCTCTTGACAA (sugars k3 d9 k3 e1, PS)” the figure was 35%.
The sequence “TAGTAATCACAAGTAA (sugars k3 d1 m1 d8 k3, PS)” came in with a target mRNA inhibition (1 µM) of 38%.
Still for that read-out and setting: to TTATGTACCAAACTTG (sugars k3 d10 k3, PS) belongs 53%; to “GCTGTAAGAGTCAGTA (sugars kkdddddddddkekek, PS)”, 42%; to “TTTCUTATGTAATAGC (sugars k3 d1 m1 d8 k3, PS)”, 50%.
As for CTCTATAATAAGGTAA (sugars k3 d10 k3, PS), the target mRNA inhibition (1 µM) was found to be 0%.
Still for that read-out and setting: to TACACCACACTAATGA (sugars k3 d10 k3, PS) belongs 26%; to CTCAATAACTGAGTTA (sugars k3 d10 k3, PS), 4%; to ACTCTATAATAAGGTA (sugars k3 d10 k3, PS), 42%.
In the case of CCAGTAAAAAATTGGT (sugars k3 d10 k3, PS), the target mRNA inhibition (1 µM) amounted to 23%.
Consider GGAGTAGATGATGGTG (sugars k3 d10 k3, PS), for which the target mRNA inhibition (1 µM) worked out at 31%.
On the same count and under the same terms, to “AGTTAGTATAGTTATC (sugars kkdddddddddkekek, PS)” belongs 47%; to CCCATAACCATAGGAC (sugars k3 d10 k3, PS), 47%.
On the same count and under the same terms, to GTGAAAGCCAACAGCG (sugars k3 d10 k3, PS) belongs 62%.
Still for that read-out and setting: with TAACTTCATAGTGGAC (sugars k3 d10 k3, PS) the figure was 76%; with “CTTAAACCTTCCCTGT (sugars kkdddddddddkekek, PS)”, 36%.
As for GAAGAAGGACTTTCAT (sugars k3 d10 k3, PS), under “1 µM”, the target mRNA inhibition amounted to 40%.
With AATATGGGATGAGGTA (sugars k3 d10 k3, PS), the target mRNA inhibition (1 µM) amounted to 53%.
In the case of CCTCATTTAGCAGCTT (sugars k3 d10 k3, PS), the target mRNA inhibition came to 14% (0.02 µM); 34% (0.078 µM); 54% (0.313 µM); 81% (1 µM); 78% (1.25 µM); 88% (5 µM).
TGACAATGTGCAGCTC (sugars k3 d10 k3, PS) registered a target mRNA inhibition (1 µM) of 64%.
As to AAAATAGAGTCGGTCA (sugars k3 d10 k3, PS), the target mRNA inhibition came to 28% (0.02 µM); 27% (0.078 µM); 51% (0.313 µM); 71% (1 µM); 69% (1.25 µM); 91% (5 µM).
For the setting “1 µM”, TTATAACTGAGCTAGA (sugars k3 d10 k3, PS) gave a target mRNA inhibition of 8%.
On the same count and under the same terms, with “CTTGAACAGTCTTAAA (sugars k3 d1 m1 d8 k3, PS)” the figure was 49%.
“GCCTUGAATAGCAAGC (sugars k3 d1 m1 d8 k3, PS)” registered a target mRNA inhibition (1 µM) of 12%.
Still for that read-out and setting: to TCGATCCTATATACAT (sugars k3 d10 k3, PS) belongs 40%; to GATCATTCCTGCTAGT (sugars k3 d10 k3, PS), 35%.
Under “1 µM”, TATTCTCCAACTCAGG (sugars k3 d10 k3, PS) registered a target mRNA inhibition of 54%.
On the same count and under the same terms, with ATTAGTCTTGATGTAG (sugars k3 d10 k3, PS) the figure was 67%; with CTAATTTAGTCAACTT (sugars k3 d10 k3, PS), 40%; with “AATATTGAGGCACTGG (sugars kkdddddddddkekek, PS)”, 29%.
The sequence CCTAAGTTATTATCCC (sugars k3 d10 k3, PS) displayed a target mRNA inhibition (1 µM) of 18%.
On the same count and under the same terms, to CAAATTCATAAGTAGT (sugars k3 d10 k3, PS) belongs 76%.
For the sequence GGACCAGGGAATTTAT (sugars k3 d10 k3, PS), the target mRNA inhibition (1 µM) stood at 55%.
Still for that read-out and setting: with AAAAGGTTATCATGGG (sugars k3 d10 k3, PS) the figure was 49%; with TCCACTTGAATTCTGT (sugars k3 d10 k3, PS), 32%; with “TGATACACCAATGCAG (sugars k3 d1 m1 d8 k3, PS)”, 38%.
Take TTCATTCGAATTTCTT (sugars k3 d10 k3, PS): the target mRNA inhibition is, setting by setting: (0.02 µM) 12%; (0.078 µM) 10%; (0.313 µM) 43%; (1 µM) 71%; (1.25 µM) 78%; (5 µM) 89%.
Where the note is “1 µM”, TACTTTTAGGGAGGTA (sugars k3 d10 k3, PS) registered a target mRNA inhibition of 28%.
Where the note is “1 µM”, GTACACGAAGCCTGAA (sugars k3 d10 k3, PS) yielded a target mRNA inhibition of 42%.
On the same count and under the same terms, to TTAATACGACTTCCTT (sugars k3 d10 k3, PS) belongs 35%; to “TTAAGATACCCAGGTT (sugars kkdddddddddkekek, PS)”, 48%.
The same measure, in the same setting: with “TGTAAGAGTCAGTATC (sugars k3 d9 k3 e1, PS)” the figure was 46%.
Same read-out and setting: with CTTACTAAGGAAATTC (sugars k3 d10 k3, PS) the figure was 19%; with TGACTAAGGAGCTAGA (sugars k3 d10 k3, PS), 31%.
Sequence ATGAGGTAAGGAATCC (sugars k3 d10 k3, PS) returned a target mRNA inhibition (1 µM) of 0%.
Turning to CTCCCACAAAACTAAC (sugars k3 d10 k3, PS), the target mRNA inhibition (1 µM) was 13%.
CCTGATTTAGAGAGCG (sugars k3 d10 k3, PS) returned a target mRNA inhibition (1 µM) of 42%.
The same measure, in the same setting: to AAAATGTCCTAGGATG (sugars k3 d10 k3, PS) belongs 0%.
For the sequence “TGTGTTCTTGTTGATA (sugars k3 d9 k3 e1, PS)”, the target mRNA inhibition (1 µM) was found to be 65%.
In turn, CTTGATTAAGGCAAAG (sugars k3 d10 k3, PS) came in with a target mRNA inhibition (1 µM) of 38%.
As for GACTACGGACTGGCAA (sugars k3 d10 k3, PS), the target mRNA inhibition (1 µM) was 60%.
In the case of “GTTTTTAAGAGGCATG (sugars k3 d9 k3 e1, PS)”, the target mRNA inhibition is, setting by setting: (0.02 µM) 12%; (0.078 µM) 17%; (0.313 µM) 41%; (1 µM) 78%; (1.25 µM) 64%; (5 µM) 82%.
Turning to TACGCATGCGCAGTGA (sugars k3 d10 k3, PS), the target mRNA inhibition (1 µM) turned out to be 60%.
On the same count and under the same terms, with “CCTCTAAGTTAGCCCC (sugars k3 d9 k3 e1, PS)” the figure was 16%; with ATTAACATTCGGCTAG (sugars k3 d10 k3, PS), 17%.
On the same count and under the same terms, with TTCATAGGGAGACCAT (sugars k3 d10 k3, PS) the figure was 65%.
The same measure, in the same setting: to “AAAGACTTTGAGACTC (sugars k3 d9 k3 e1, PS)” belongs 67%; to GACTTCAGAGTTATAC (sugars k3 d10 k3, PS), 16%.
As to TATACAGACTAAGGGA (sugars k3 d10 k3, PS), for the setting “1 µM”, the target mRNA inhibition came to 24%.

The record behind these values is the OligoGym collection.
